Results: patent US10105357B2, “Indication of antibiotic drugs for preparation of cancer inhibition pharmaceutical composition” (LAUNX BIOMEDICAL CO., LTD., priority 2014, dated 2018)
Like-named read-outs stand apart in the source and are kept apart here.

Columns and labels:
[1] = tested on: PC3 (p53−) (Prostate Adenocarcinoma); experiment: Cell viability analysis, prostate cancer PC3; format: cell-based, human; settings: Homo sapiens
[2] = tested on: HepG2 (Hepatocellular Carcinoma); experiment: Cell viability analysis, hepatic cancer HepG2; format: cell-based, human; settings: Homo sapiens, HepG2, 72 h
[3] = tested on: HeLa (Cervix Adenocarcinoma); experiment: Cell viability analysis, cervical cancer HeLa; format: cell-based, human; settings: Homo sapiens, HeLa
[4] = tested on: A549 (Lung Adenocarcinoma); experiment: Cell viability analysis, lung cancer A549; format: cell-based, human; settings: Homo sapiens
[5] = tested on: HCT116 (p53+) (Colorectal Carcinoma); experiment: cells; settings: Homo sapiens, HCT-116, 72 h, read-out: cell viability (survival rate), HCT116
[6] = tested on: LoVo (Colorectal Adenocarcinoma); experiment: Cell viability analysis, colon cancer LoVo; format: cell-based, human; settings: Homo sapiens, LoVo
[7] = tested on: HL-60 (Acute Promyelocytic Leukemia); experiment: Cell viability analysis, leukemia HL-60; format: cell-based, human; settings: Homo sapiens
[8] = tested on: AGS (Gastric Adenocarcinoma); experiment: Cell viability analysis, gastric cancer AGS; format: cell-based, human; settings: Homo sapiens
[9] = tested on: HI650 (Lung Adenocarcinoma); experiment: Cell viability analysis, lung cancer HI650; format: cell-based, human; settings: Homo sapiens
[10] = tested on: MKN-45 (Gastric Adenocarcinoma); experiment: Cell viability analysis, gastric cancer MKN-45; format: cell-based, human; settings: Homo sapiens
[11] = tested on: A375 (Amelanotic Melanoma); experiment: Cell viability analysis, skin cancer A375; format: cell-based, human; settings: Homo sapiens
[12] = tested on: TSGH-8301 (Urinary Bladder Carcinoma); experiment: Cell viability analysis, bladder cancer TSGH-8301; format: cell-based, human; settings: Homo sapiens
[13] = tested on: MCF7 (Mammary Gland, Adenocarcinoma); experiment: Cell viability analysis, breast cancer MCF7; format: cell-based, human; settings: Homo sapiens
NIH: OVCAR-3 = experiment: Cell viability analysis, ovarian cancer NIH: OVCAR-3; format: cell-based, human; settings: Homo sapiens, OVCAR-3, 72 h, read-out: The results of antibiotic drug inhibiting cancer cell lines (cell viability analysis), NIH-OVCAR-3
TOV-21G = experiment: Cell viability analysis, ovarian cancer TOV-21G; format: cell-based, human; settings: Homo sapiens, TOV21G, 72 h, read-out: The results of antibiotic drug inhibiting cancer cell lines (cell viability analysis), TOV-21G
[14] = tested on: 786-O (Renal adenocarcinoma); experiment: Cell viability analysis, renal cancer 786-O; format: cell-based, human; settings: Homo sapiens, 786-0, 72 h, read-out: The results of antibiotic drug inhibiting cancer cell lines (cell viability analysis), 786-O
[15] = tested on: MDA-MB-231 (Mammary Gland, Adenocarcinoma); experiment: Cell viability analysis, breast cancer MDA-MB-231; format: cell-based, human; settings: Homo sapiens, MDA-MB-231, 72 h, read-out: The results of antibiotic drug inhibiting cancer cell lines (cell viability analysis), MDA-MB231
[16] = tested on: Hep3B (hepatocellular carcinoma); experiment: Cell viability analysis, hepatic cancer Hep3B; format: cell-based, human; settings: Homo sapiens, Hep3B, 72 h, read-out: The results of antibiotic drug inhibiting cancer cell lines (cell viability analysis), Hep3B
cancer cell lines = experiment: Cell viability analysis (WST-1) on cancer cell lines; format: cell-based, human; settings: drug 10 μM, 72 hours, WST-1; Table 3
[17] = tested on: HCT116 (p53+) (Colorectal Carcinoma)
U-2OS = experiment: Cell viability analysis, osteosarcoma U-2OS; format: cell-based, human; settings: Homo sapiens, U2OS, 72 h, read-out: The results of antibiotic drug inhibiting cancer cell lines (cell viability analysis), U2OS
[18] = tested on: C-33A (Cervical carcinoma); experiment: Cell viability analysis, cervical cancer C-33A; format: cell-based, human; settings: Homo sapiens, C-33-A, 72 h, read-out: The results of antibiotic drug inhibiting cancer cell lines (cell viability analysis), C-33A
[19] = tested on: SAS (Tongue squamous cell carcinoma); experiment: Cell viability analysis, tongue cancer SAS; format: cell-based, human; settings: Homo sapiens, 72 h, read-out: The results of antibiotic drug inhibiting cancer cell lines (cell viability analysis), SAS
BxPC-3 = experiment: Cell viability analysis, pancreatic cancer BxPC-3; format: cell-based, human; settings: Homo sapiens, BXPC-3, 72 h, read-out: The results of antibiotic drug inhibiting cancer cell lines (cell viability analysis), BxPC-3
[20] = tested on: BCC (basal cell carcinoma); experiment: Cell viability analysis, skin cancer BCC; format: cell-based, human; settings: Homo sapiens, 72 h, read-out: The results of antibiotic drug inhibiting cancer cell lines (cell viability analysis), BCC
T24 = experiment: Cell viability analysis, bladder cancer T24; format: cell-based, human; settings: Homo sapiens, T-24, 72 h, read-out: The results of antibiotic drug inhibiting cancer cell lines (cell viability analysis), T24
AsPC-1 = experiment: Cell viability analysis, pancreatic cancer AsPC-1; format: cell-based, human; settings: Homo sapiens, ASPC1, 72 h, read-out: The results of antibiotic drug inhibiting cancer cell lines (cell viability analysis), AsPC-1
[21] = 72 h, read-out: cell viability (survival rate), LoVo, drug 10 μM, 72 hours, WST-1, OD450 nm
[22] = 72 h, read-out: cell viability (survival rate), PC3, drug 10 μM, 72 hours, WST-1, OD450 nm
[23] = read-out: cell viability (survival rate), HepG2, drug 10 μM, 72 hours, WST-1, OD450 nm
[24] = A549, 72 h, read-out: cell viability (survival rate), A549, drug 10 μM, 72 hours, WST-1, OD450 nm
[25] = 72 h, read-out: cell viability (survival rate), TSGH, drug 10 μM, 72 hours, WST-1, OD450 nm
[26] = HL-60, 72 h, read-out: cell viability (survival rate), HL-60, drug 10 μM, 72 hours, WST-1, OD450 nm
[27] = 72 h, read-out: cell viability (survival rate), AGS, drug 10 μM, 72 hours, WST-1, OD450 nm
[28] = NCI-H1650, 72 h, read-out: cell viability (survival rate), H1650, drug 10 μM, 72 hours, WST-1, OD450 nm
[29] = A-375, 72 h, read-out: cell viability (survival rate), A375, drug 10 μM, 72 hours, WST-1, OD450 nm

CCCCCCCCCCCCCCCCO [1-Hexadecanol]
viability at 10 µM ([1]; 72 h, drug 10 μM, 72 hours, WST-1, OD450 nm, read-out: cell viability (survival rate), PC3): 91.9%
viability at 10 µM ([2]; drug 10 μM, 72 hours, WST-1, OD450 nm, read-out: cell viability (survival rate), HepG2): 96%
viability at 10 µM ([3]; 72 h, drug 10 μM, 72 hours, WST-1, OD450 nm, read-out: cell viability (survival rate), HeLa): 91.3%
viability at 10 µM ([4]; A549, 72 h, drug 10 μM, 72 hours, WST-1, OD450 nm, read-out: cell viability (survival rate), A549): 84%
viability at 10 µM [5]: 69.8%
viability at 10 µM [6, 21]: 98.8%
viability at 10 µM ([7]; HL-60, 72 h, drug 10 μM, 72 hours, WST-1, OD450 nm, read-out: cell viability (survival rate), HL-60): 92.2%
viability at 10 µM ([8]; 72 h, drug 10 μM, 72 hours, WST-1, OD450 nm, read-out: cell viability (survival rate), AGS): 89.4%
viability at 10 µM ([9]; NCI-H1650, 72 h, drug 10 μM, 72 hours, WST-1, OD450 nm, read-out: cell viability (survival rate), H1650): 84.3%
viability at 10 µM ([10]; MKN-45, 72 h, drug 10 μM, 72 hours, WST-1, OD450 nm, read-out: cell viability (survival rate), MKN-45): 85.5%
viability at 10 µM ([11]; A-375, 72 h, drug 10 μM, 72 hours, WST-1, OD450 nm, read-out: cell viability (survival rate), A375): 113%

O=c1ccc2ccccc2o1 [Coumarin]
viability at 10 µM [1, 22]: 86.3%
viability at 10 µM [2, 23]: 100%
viability at 10 µM ([3]; 72 h, read-out: cell viability (survival rate), HeLa, drug 10 μM, 72 hours, WST-1, OD450 nm): 96.5%
viability at 10 µM [4, 24]: 91.8%
viability at 10 µM [12, 25]: 108%
viability at 10 µM [5]: 93.7%
viability at 10 µM [6, 21]: 88.3%
viability at 10 µM [7, 26]: 102%
viability at 10 µM [8, 27]: 98.5%
viability at 10 µM [9, 28]: 95.6%
viability at 10 µM [11, 29]: 157%

c1ccc2c(c1)sc1ccccc12 [Dibenzothiophene]
viability at 10 µM ([1]; drug 10 μM, 72 hours, WST-1, OD450 nm, read-out: cell viability (survival rate), PC3): 80.2%
viability at 10 µM ([3]; drug 10 μM, 72 hours, WST-1, OD450 nm, read-out: cell viability (survival rate), HeLa): 94.6%
viability at 10 µM ([4]; A549, drug 10 μM, 72 hours, WST-1, OD450 nm, read-out: cell viability (survival rate), A549): 62.3%
viability at 10 µM ([12]; drug 10 μM, 72 hours, WST-1, OD450 nm, read-out: cell viability (survival rate), TSGH): 88.2%
viability at 10 µM [5]: 52.7%
viability at 10 µM ([6]; drug 10 μM, 72 hours, WST-1, OD450 nm, read-out: cell viability (survival rate), LoVo): 79.7%
viability at 10 µM ([13]; MCF7, drug 10 μM, 72 hours, WST-1, OD450 nm, read-out: cell viability (survival rate), MCF7): 71.4%
viability at 10 µM ([7]; HL-60, drug 10 μM, 72 hours, WST-1, OD450 nm, read-out: cell viability (survival rate), HL-60): 110%
viability at 10 µM ([8]; drug 10 μM, 72 hours, WST-1, OD450 nm, read-out: cell viability (survival rate), AGS): 59.2%
viability at 10 µM ([9]; NCI-H1650, drug 10 μM, 72 hours, WST-1, OD450 nm, read-out: cell viability (survival rate), H1650): 76.1%
viability at 10 µM ([10]; MKN-45, drug 10 μM, 72 hours, WST-1, OD450 nm, read-out: cell viability (survival rate), MKN-45): 92.1%
viability at 10 µM ([11]; A-375, drug 10 μM, 72 hours, WST-1, OD450 nm, read-out: cell viability (survival rate), A375): 70.6%

CN(C)c1cc(NC(=O)CNC(C)(C)C)c(O)c2c1C[C@H]1C[C@H]3[C@H](N(C)C)C(O)=C(C(N)=O)C(=O)[C@@]3(O)C(O)=C1C2=O [Tigecycline]
viability at 10 µM (NIH: OVCAR-3): 91.1%
viability at 10 µM (TOV-21G): 67.1%
viability at 10 µM [14]: 100%
viability at 10 µM [15]: 93.4%
viability at 10 µM [16]: 106%
viability at 10 µM ([1]; 72 h, read-out: The results of antibiotic drug inhibiting cancer cell lines (cell viability analysis), PC-3, PC-3, repeated experiment): 112%
viability at 10 µM [1, 22]: 83%
viability at 10 µM ([2]; read-out: The results of antibiotic drug inhibiting cancer cell lines (cell viability analysis), HepG2, HepG2, repeated experiment): 97.2%
viability at 10 µM [2, 23]: 102%
viability at 10 µM ([3]; 72 h, read-out: The results of antibiotic drug inhibiting cancer cell lines (cell viability analysis), HeLa, repeated experiment): 102%
inhibition effect on different cancer cell lines (cancer cell lines): significant inhibition effect
viability [17]: 89.7%
viability at 10 µM (U-2OS): 84%
viability at 10 µM ([4]; A549, 72 h, read-out: The results of antibiotic drug inhibiting cancer cell lines (cell viability analysis), A549, A549, repeated experiment): 91.5%
viability at 10 µM [4, 24]: 55.9%
viability at 10 µM [18]: 100%
viability at 10 µM [19]: 66.2%
viability at 10 µM ([12]; 72 h, TSGH-8301, repeated experiment, read-out: The results of antibiotic drug inhibiting cancer cell lines (cell viability analysis), TSGH-8301): 113%
viability at 10 µM [12, 25]: 98.5%
viability at 10 µM (BxPC-3): 75.6%
viability at 10 µM [20]: 79.9%
viability at 10 µM ([6]; 72 h, read-out: The results of antibiotic drug inhibiting cancer cell lines (cell viability analysis), LoVo, repeated experiment): 96%
viability at 10 µM [6, 21]: 82.4%
viability at 10 µM ([13]; MCF7, 72 h, read-out: The results of antibiotic drug inhibiting cancer cell lines (cell viability analysis), MCF-7, MCF-7, repeated experiment): 79.1%
viability at 10 µM ([13]; MCF7, 72 h, read-out: cell viability (survival rate), MCF7, drug 10 μM, 72 hours, WST-1, OD450 nm): 71.1%
viability at 10 µM [7, 26]: 97.6%
viability at 10 µM ([8]; 72 h, read-out: The results of antibiotic drug inhibiting cancer cell lines (cell viability analysis), AGS, repeated experiment): 90.6%
viability at 10 µM [8, 27]: 49.4%
viability at 10 µM (T24): 109%
viability at 10 µM ([9]; NCI-H1650, 72 h, read-out: The results of antibiotic drug inhibiting cancer cell lines (cell viability analysis), H1650, H1650, repeated experiment): 66.9%
viability at 10 µM [9, 28]: 53.1%
viability at 10 µM ([10]; MKN-45, 72 h, read-out: The results of antibiotic drug inhibiting cancer cell lines (cell viability analysis), MKN-45, MKN-45, repeated experiment): 114%
viability at 10 µM ([10]; MKN-45, 72 h, read-out: cell viability (survival rate), MKN-45, drug 10 μM, 72 hours, WST-1, OD450 nm): 89.2%
viability at 10 µM ([11]; A-375, 72 h, read-out: The results of antibiotic drug inhibiting cancer cell lines (cell viability analysis), A375, A375, repeated experiment): 83.2%
viability at 10 µM [11, 29]: 52.2%
viability at 10 µM (AsPC-1): 86.5%
